In one data set the test system is breast cancer. The data set can be described thus: Docetaxel alone, several in-house proprietary studies. In kind it is in vivo, human. The method, then:
Docetaxel alone, in several in-house proprietary studies, gave overall response rates of 40 to 43% (in second line therapy at a dose of 100 mg/m^2), 48% (in first line therapy at a dose of 75 mg/m^2) and 61% (in first line therapy at a dose of 100 mg/m^2).

The conditions of data set [1]: treatments based on taxoid derivatives, including docetaxel; cited from earlier work.

Regarding `CC(=O)O[C@@]12CO[C@@H]1C[C@H](O)[C@@]1(C)C(=O)[C@H](O)C3=C(C)[C@@H](OC(=O)[C@H](O)[C@@H](NC(=O)OC(C)(C)C)c4ccccc4)C[C@@](O)([C@@H](OC(=O)c4ccccc4)[C@H]21)C3(C)C` [docetaxel], the overall response rate with breast cancer (first line therapy, 75 mg/m^2) is recorded as 48%; with breast cancer (first line therapy, 100 mg/m^2), 61%; in the data set on breast cancer (second line therapy, 100 mg/m^2) it was 40 to 43%. Besides, in data set [1], the toxicities entry was “myelosuppression, neutropenia, hypersensitivity, peripheral neuropathy, and fluid retention”.

The values above are taken from patent US6333348A, “Use of docetaxel for treating cancers” (Aventis Pharma S.A., priority 2000, dated 2001).
